Data set [1] is described as follows: Resazurin-based in vitro cytotoxicity with L-6 cells. The settings on record: rat. Format: cell-based, rat. How it is done: Serial drug dilutions of eleven 3-fold dilution steps covering a range from 100 to 0.002 µg/mL were prepared. After 70 h of incubation, the plates were inspected under an inverted microscope to assure growth of the controls and sterile conditions. […] The plates were read with a Spectramax Gemini XS microplate fluorometer (Molecular Devices Cooperation, Sunnyvale, CA, USA) using an excitation wavelength of 536 nm and an emission wavelength of 588 nm. IC50 values were calculated by linear regression from the sigmoidal dose–inhibition curves using SoftmaxPro software Version 8.2.1 (Molecular Devices Cooperation, Sunnyvale, CA, USA). Podophyllotoxin (Sigma P4405) was used as control.

Data set [2] has as its system S. aureus JE2 USA 300. As to the kind of experiment: MIC/MBC microbroth dilution (EUCAST). Format: cell-based. The settings on record: Staphylococcus aureus, USA300, S. aureus JE2 USA 300. How it is done: (§1) Minimum inhibitory concentrations (MIC values) were obtained using the microbroth dilution method as stated in the EUCAST guidelines. Tests were conducted on cation adjusted Mueller–Hinton broth (caMHB) or agar (caMHA). These were prepared and stored following the manufacturer’s guidelines. Biological organisms were prepared via growth on either Luria–Bertani (LB) or cation adjusted Mueller–Hinton agar plates. These were grown for 24 h at 37 °C, except for Micrococcus luteus where MICs took longer to grow and as a consequence were read after 48 h once a clear positive control could be observed. For the MIC experiment, the bacteria were prepared using the McFarland 0.5 standard and diluted 1 in 100 or 1 in 10 in caMHB following EUCAST and CSLI guidelines for the preparation of bacteria. Testing of the compounds using the microbroth dilution method took place in 96-well plates. Serial 2-fold dilutions of compounds in caMHB covering a range from 256 µg/mL to 0.25 µg/mL were prepared. Bacteria preparations (McFarland) were added to the compound dilutions, further halving the compound concentrations. The plate was then incubated for 18 h at 37 °C. Controls for the MIC experiments included a bacterial growth (positive) control of bacteria and caMHB only and a media only (negative) control. After incubation, the plates were read, whereby the positive control of bacteria was visible and the negative control was clear of contamination. The last clear well, where there is no growth of bacteria, was counted as the MIC value. […] The lowest concentration without any bacterial growth was counted as the MBC value. The following pathogens were used: Pseudomonas aeruginosa NCTC 13437, Escherichia coli NCTC 13353, Bacillus subtilis 168a, Serratia marcescens NCTC 9940, Micrococcus luteus ATCC 10240, Staphylococcus aureus JE2 USA 300, Acinetobacter baumannii ATCC 19606, and Klebsiella pneumoniae ATCC 700603. A concentration range of 256 µg/mL to 0.25 µg/mL of a combination of ciprofloxacin and meropenem against E. coli 25922 was used as an antibiotic control to ensure correct dilution and performance of the assay.
A general note: Broth dilution looks for growth in wells or tubes with falling amounts of substance.

Data set [3] deals with S. marcescens NCTC 9940. As to the kind of experiment: MIC/MBC microbroth dilution (EUCAST). Format: cell-based. The settings on record: Serratia marcescens, NCTC9940. Here is the method:
as §1

Data set [4] relates to K. pneumoniae ATCC 700603. The data set is described as follows: MIC/MBC microbroth dilution (EUCAST). Format: cell-based. The settings on record: Klebsiella pneumoniae, ATCC700603. How it is done:
as §1

The test system of data set [5] is P. aeruginosa NCTC 13437. The data set is described as follows: MIC/MBC microbroth dilution (EUCAST). The settings on record: Pseudomonas aeruginosa, NCTC13437. It counts as cell-based. How it is done: as §1
Data set [6] has as its system P. falciparum NF54. The data set is described as follows: In vitro microplate assay against P. falciparum NF54 (3H-hypoxanthine incorporation). The settings on record: Plasmodium falciparum, NF54, chloroquine-sensitive strain NF54, erythrocytic stages; read-out: P.f.NF54 IC50. It counts as cell-based, Plasmodium falciparum. Here is the method:
Serial drug dilutions of eleven 3-fold dilution steps covering a range from 100 to 0.002 µg/mL were prepared. […] After 48 h of incubation time, 0.05 mL of ^3H-hypoxanthine (=0.5 µCi) was added to each well of the plate. The plates were incubated for a further 24 h under the same conditions. Plates were then harvested using a BetaplateTM cell harvester (Wallac, Zurich, Switzerland). Red blood cells were transferred onto a glass fiber filter and then washed with distilled aqua demin. The dried filters were inserted into a plastic foil with 10 mL of scintillation fluid and counted in a BetaplateTM liquid scintillation counter (Wallac, Zurich, Switzerland). IC50 values were calculated from sigmoidal inhibition curves by linear regression using Microsoft Excel. […] Louis, MO, USA) was used as control.

The nature of data set [7]: Parallel artificial membrane permeability assay (PAMPA). The settings on record: PAMPA, pH 7.4, Pe, PBS pH 7.4, 200 µM, 5 h, room temperature. Here is the method: With the high-throughput PAMPA the newly synthesized compounds were tested for their passive permeability through cell membranes without the influence of efflux pumps or transporter proteins. The assay was performed using a Corning® Gentest^TM Precoated PAMPA Plate System (Corning, Glendale, AZ, USA) with 96-well polystyrene plates. The bottom of the acceptor plate consists of a porous membrane, whereby the pores are lined with a lipid–oil–lipid triple layer. Stock solutions of each test compound at 10 mM were prepared in DMSO or methanol and diluted with phosphate-buffered saline (PBS at a pH of 7.4) to a final concentration of 200 µM. […] The donor plate (bottom plate) was filled with the compound solutions, whereby all compounds were tested in quadruplicates. Each well of the acceptor plate (top plate) was filled with PBS buffer. Donor and acceptor plates were combined and incubated at room temperature for 5 h. After that, the plates were separated and 150 µL of each well of both plates were transferred to 96-well UV plates (Greiner Bio-One). Absorption at different wavelengths covering a range from 200 to 300 nm was measured using a SpectraMax M3 UV plate reader. […] The plates were analyzed at the wavelength where the R2 value of the calibration curve was higher than 0.99 [47].
Recovery of compounds from donor and acceptor wells (mass retention) was calculated as shown in the equation below. Data were only accepted when recovery exceeded 70%. The equation is as follows:(3) R=1−[cDt×VD+cAt×VA]/(c0×VD) where
Background: In PAMPA a lipid-coated filter parts donor from acceptor wells.

Data set [8] concerns E. coli NCTC 13353. The data set is described as follows: MIC/MBC microbroth dilution (EUCAST). It counts as cell-based, Escherichia coli. The settings on record: Escherichia coli; for MBC: NCTC13353; for MIC: NCTC13353, read-out: MIC. Here is the method:
as §1

The test system of data set [9] is A. baumannii ATCC 19606. As to the kind of experiment: MIC/MBC microbroth dilution (EUCAST). It counts as cell-based, Acinetobacter baumannii. The settings on record: Acinetobacter baumannii; for MBC: ATCC19606; for MIC: ATCC19606, read-out: MIC. Here is the method: as §1
The subject of data set [10] is B. subtilis 168a. As to the kind of experiment: MIC/MBC microbroth dilution (EUCAST). It counts as cell-based, Bacillus subtilis. The settings on record: Bacillus subtilis, 168A; for MIC: read-out: MIC. Here is the method: as §1
Data set [11] can be described thus: Resazurin-based in vitro cytotoxicity with HepG2 cells. Format: cell-based, human. The settings on record: HepG2 cells; human hepatocarcinoma cells, 48 h. Here is the method: The HepG2 cells were washed with DPBS (Dulbecco’s PBS without calcium and magnesium, Gibco, Cat #21600-044) and trypsinized with trypsin solution in DPBS. Trypsinization was stopped by adding culture medium, and after being stained with Trypan Blue (SORS Ukraine) cells were counted using a counting chamber (Hausser Scientific, Cat #3500). The cell suspension was placed in a falcon tube containing plating medium DMEM/High glucose with 1% fetal bovine serum, 100 units/mL penicillin, and 100 µg/mL streptomycin. Cells at a density of 250,000 cells/mL were seeded in sterile 384-well plates (Greiner Bio-One, Cat #781091) in a volume of […] and incubated at 37 °C and 5% CO2. Serial dilutions of ten 3-fold dilution steps of test and reference compounds covering a range from 100.0 to 0.005 µM were added to the wells, followed by incubation at 37 °C and 5% CO2 for 48 h. Then, resazurin (50 µM final concentration) was added and plates were incubated for another 3 h. The plates were read with a SpectraMax microplate reader (Molecular Devices Cooperation, Sunnyvale, CA, USA)) using an extinction wavelength of 555 nm and an emission wavelength of 570 nm. IC50 values were calculated using GraphPad Prism 9.0 charting software. Doxorubicin (Sigma Aldrich D1515) was used as control.
On the technique in general: Alamar Blue is a resazurin reagent that responds to reducing activity.

One may read the IC50 as the concentration needed to halve the response being measured. A word on the MBC: it is the lowest tested concentration that kills the bacteria rather than only halting them. What is called MIC is the least concentration at which growth counts as inhibited. For orientation: Papp means the rate of passage across a membrane or cell layer, normalised by area and donor concentration. As to `O=C(Nc1ccc(N2CCNCC2)cc1)c1ccccc1Oc1ccc(F)cc1` [Compound 59, 2-(4-Fluorophenoxy)-N-[4-(piperazin-1-yl)phenyl]benzamide], in data set [1], the IC50 at 70 h was found to be 25.4 µM. The minimum bactericidal concentration (MBC) in [2] is 128 µg/mL; in data set [3], greater than 256 µg/mL; in data set [4] it was 128 µg/mL; in data set [5], greater than 256 µg/mL; in [8], greater than 256 µg/mL; in data set [9] it was 256 µg/mL. Also, the minimum bactericidal concentration (MBC) in data set [10] turned out to be 128 µg/mL. In addition, the MIC was 128 µg/mL in data set [2]; greater than 256 µg/mL in data set [3]; 128 µg/mL in [4]; greater than 256 µg/mL in [5]; 256 µg/mL in data set [8]; 256 µg/mL in [9]. Further, the minimum inhibitory concentration (MIC) in data set [10] was 128 µg/mL. For the same compound, the half-inhibitory concentration (IC50) in data set [6] turned out to be 2.04 µM. Further, the Papp at 5 h, 200 µM in data set [7] is 14.2 ×10⁻⁶ cm/s. The compound further returned a 50% inhibitory concentration (IC50) at 48 h in data set [11] of 38.9 µM.

As for `O=C(Nc1ccc(N2CCNCC2)cc1)c1cccc(F)c1Oc1ccc(F)cc1` [Compound 60, 3-Fluoro-2-(4-fluorophenoxy)-N-[4-(piperazin-1-yl)phenyl]benzamide], the concentration for half-maximal inhibition (IC50) at 70 h in [1] is 40.8 µM. Also, the MBC in [2], in data set [3], in [4], in [5], in data set [8] and in [9] was greater than 256 µg/mL each time. Also, the MBC in data set [10] was 256 µg/mL. Moreover, the MIC in [2], in [3], in data set [4], in data set [5], in [8] and in data set [9] was greater than 256 µg/mL each time. Also, in data set [10], the MIC stood at 256 µg/mL. Moreover, the IC50 in [6] worked out at 4.7 µM. The compound further displayed a Papp at 5 h, 200 µM in data set [7] of 11.7 ×10⁻⁶ cm/s. In addition, it took 26.2 µM to reach half-maximal inhibition in data set [11] (IC50 at 48 h).

The compound `O=C(Nc1cccc(N2CCNCC2)c1)c1cccc(C(F)(F)F)c1Oc1ccc(F)cc1` [Compound 56, 2-(4-Fluorophenoxy)-N-[3-(piperazin-1-yl)phenyl]-3-(trifluoromethyl)benzamide] gave an IC50 at 70 h in data set [1] of 34.2 µM. The MBC in [2] is 256 µg/mL; in [3] it was greater than 256 µg/mL; in [4], greater than 256 µg/mL; in data set [5] it was greater than 256 µg/mL; in [8] it was greater than 256 µg/mL; in data set [9], 256 µg/mL. Further, in data set [10], the minimal bactericidal concentration (MBC) is 256 µg/mL. Besides, the MIC was 256 µg/mL in data set [2]; 256 µg/mL in data set [3]; greater than 256 µg/mL in data set [4]; 256 µg/mL in data set [5]; 256 µg/mL in [8]; 128 µg/mL in data set [9]. Besides, the minimum inhibitory concentration (MIC) in data set [10] is 128 µg/mL. Also, the IC50 in [6] was determined as 5.45 µM. This compound also showed an apparent permeability (Papp) at 5 h, 200 µM in data set [7] of 7.03 ×10⁻⁶ cm/s. 12.7 µM corresponded to half-maximal inhibition in data set [11] (IC50 at 48 h).

`O=C(Nc1ccc(N2CCNCC2)cc1)c1cccc(C(F)(F)F)c1Oc1ccc(F)cc1` [Compound 57, 2-(4-Fluorophenoxy)-N-[4-(piperazin-1-yl)phenyl]-3-(trifluoromethyl)benzamide] registered an IC50 at 70 h in [1] of 37.3 µM. The MBC in data set [2] was 128 µg/mL; in [3], greater than 256 µg/mL; in [4] it was 128 µg/mL; in [5] it was greater than 256 µg/mL; in [8] it was greater than 256 µg/mL; in [9], 256 µg/mL. For the same compound, the MBC in [10] came out at 256 µg/mL. In addition, the minimum inhibitory concentration (MIC) was 128 µg/mL in [2]; greater than 256 µg/mL in data set [3]; 128 µg/mL in data set [4]; greater than 256 µg/mL in data set [5]; greater than 256 µg/mL in data set [8]; 128 µg/mL in [9]. The MIC in [10] came to 128 µg/mL. The half-inhibitory concentration (IC50) in data set [6] was 3.15 µM. Further, the Papp at 5 h, 200 µM in [7] came to 6.89 ×10⁻⁶ cm/s. In data set [11], half-maximal inhibition (IC50 at 48 h) required 10.4 µM.

The values are drawn from PMC12298624, “Anti-Infective Properties, Cytotoxicity, and In Silico ADME Parameters of Novel 4′-(Piperazin-1-yl)benzanilides” (Pharmaceuticals, 2025).
